The source made the active and inactive calls. No cut-off for these calls is given here.
Columns and labels:
[1] = tested on: Rattus norvegicus; assay: Antipsychotic activity in rat assessed as reduction in MK-801-induced locomotor behaviors at 1 mg/kg, ip; type: functional, organism-based
[2] = tested on: Homo sapiens; assay: Potentiation of levadopa-induced improvements in parkinsonian symptoms in parkinsonian patient administered orally once daily for four weeks with dose escalating once each week (30 mg on week2, 70 mg on week3, 150 mg on week 4 and 300 mg on week 5) in placebo controlled study lasting for 5 weeks measured on first day of each dose escalation; type: functional
[3] = tested on: Mus musculus; assay: Reduction in d-amphetamine-induced hyperactivity in sc dosed mouse; type: functional

| SMILES | Activity [1] | EC50 [2] [nM] | Activity [3] |
| --- | --- | --- | --- |
| CN1CCN(C2=Nc3cc(Cl)ccc3Nc3ccccc32)CC1 [CLOZAPINE] | Active | 6.4 | – |
| O=C(CCCN1CCC(O)(c2ccc(Cl)cc2)CC1)c1ccc(F)cc1 | – | – | Dose-dependent effect |
